ChEMBL document CHEMBL5108051, “Improving the Antimicrobial Performance of Amphiphilic Cationic Antimicrobial Peptides Using Glutamic Acid Full-Scan and Positive Charge Compensation Strategies” (J Med Chem, 2022)
Active and inactive are the calls of the source. The calls are words filed in the database; no cut-off is given here. Bridge positions count the residues as written; N and C are the ends. Square brackets hold non-standard residues; d marks the D form. Peptide text beside a SMILES is read from it. * marks the point of attachment. X1 = CC[C@H](C)CCCCC(=O)*; Dab = NCC[C@H](N)C(=O)O

What was measured:
[1] = system: Staphylococcus aureus; experiment: Antimicrobial activity against Staphylococcus aureus ATCC 25923 in presence of MgCl2; type: functional, organism-based
[2] = system: Staphylococcus aureus; experiment: Antibacterial activity against Staphylococcus aureus ATCC 25923 infected in BALB/C mouse pulmonary infection model assessed as increase in alveolar aggregation in lung at 10 mg/kg, ip after 24 hrs by H and E staining method; type: functional, organism-based
[3] = Acute toxicity in BALB/c mouse assessed as pathological changes in liver at 10 to 40 mg/kg, ip administered as single dose measured for 7 days by H and E staining method; type: organism-based; conditions: in vivo, 168 h, dose 10-40 mg/kg, time 7 day

CC(C)C[C@H](NC(=O)[C@H](CC(C)C)NC(=O)[C@H](CCC(=O)O)NC(=O)[C@H](CCCCN)NC(=O)[C@H](CC(C)C)NC(=O)[C@H](CC(C)C)NC(=O)[C@H](CCCCN)NC(=O)[C@H](C)NC(=O)[C@@H](NC(=O)[C@H](CCCCN)NC(=O)[C@@H]1CCCN1C(=O)[C@H](CC(C)C)NC(=O)[C@@H](N)Cc1ccccc1)C(C)C)C(N)=O (H-FLPKVAKLLKELL-NH2)
Activity [1]: Active
Activity [2]: Active

CC[C@H](C)CCCCC(=O)N[C@@H](CCN)C(=O)N[C@H](C(=O)N[C@@H](CCN)C(=O)N[C@H]1CCNC(=O)[C@H]([C@@H](C)O)NC(=O)[C@H](CCN)NC(=O)[C@H](CCN)NC(=O)[C@H](CC(C)C)NC(=O)[C@@H](Cc2ccccc2)NC(=O)[C@H](CCN)NC1=O)[C@@H](C)O (X1-[Dab]T[Dab][Dab][Dab][dF]L[Dab][Dab]T; lactam 4-C)
Activity [3]: Non-Toxic
